Measurements as given in ChEMBL document CHEMBL1201862, “PubChem BioAssay data set” (2004).
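Briefly, cells in 96-well plates were exposed to five compound concentrations for 48 h, and endpoints were estimated by linear interpolation. At the GI50, growth is halved.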 Active and inactive are the calls of the source. Rule as the data show it: active = GI50 up to about 1.1 µM and inactive = higher.

Experiments:
Assay in all cases: inhibition of tumour cell growth, NCI panel, 48 h
OVCAR-4 = test system: OVCAR-4
SR = test system: SR
HCC 2998 = test system: HCC 2998
LOX IMVI = test system: LOX IMVI
DU-145 = test system: DU-145
NCI-H226 = test system: NCI-H226
K562 = test system: K562
SNB-75 = test system: SNB-75
HOP-92 = test system: HOP-92
HT-29 = test system: HT-29
HOP-62 = test system: HOP-62
SK-MEL-28 = test system: SK-MEL-28
COLO 205 = test system: COLO 205
NCI/ADR-RES = test system: NCI/ADR-RES
MDA-MB-231 = test system: MDA-MB-231
SF-295 = test system: SF-295
M14 = test system: M14
OVCAR-3 = test system: OVCAR-3
A498 = test system: A498
NCI-H522 = test system: NCI-H522

Measured: GI50

O=C(CCc1ccc(O)c(O)c1)NCCc1ccccc1
inactive: OVCAR-4 14.6 µM | SR 7.16 µM | HCC 2998 > 100 µM | LOX IMVI 63.2 µM | DU-145 > 88.1 µM | NCI-H226 99.8 µM | K562 16.5 µM | SNB-75 > 48 µM | HOP-92 48.3 µM | HT-29 > 45.3 µM | HOP-62 > 100 µM | SK-MEL-28 85.5 µM | COLO 205 23.1 µM | NCI/ADR-RES 40.4 µM | MDA-MB-231 16.8 µM | SF-295 > 91.2 µM | M14 > 85.7 µM | OVCAR-3 30.1 µM | A498 > 100 µM | NCI-H522 5.6 µM

O=c1c2ccccc2n2c(-c3ccc(O)cc3)nnc2n1-c1ccccc1
inactive: OVCAR-4 20 µM | SR 21.3 µM | HCC 2998 49.1 µM | LOX IMVI 29.4 µM | DU-145 21.9 µM | NCI-H226 27 µM | K562 13.4 µM | SNB-75 18.7 µM | HOP-92 23.3 µM | HT-29 22.1 µM | HOP-62 20.4 µM | SK-MEL-28 24.3 µM | COLO 205 77.6 µM | NCI/ADR-RES 21.5 µM | MDA-MB-231 17.1 µM | SF-295 15.6 µM | M14 18.2 µM | OVCAR-3 18.2 µM | A498 13 µM | NCI-H522 18.2 µM
